Like-named read-outs stand apart in the source and are kept apart here.
Columns and labels:
[1] = biological target: T1, CYP124 (Mycobacterium tuberculosis, UniProt P9WPP3); test: biochemical
T1 sequence (P9WPP3 1-428): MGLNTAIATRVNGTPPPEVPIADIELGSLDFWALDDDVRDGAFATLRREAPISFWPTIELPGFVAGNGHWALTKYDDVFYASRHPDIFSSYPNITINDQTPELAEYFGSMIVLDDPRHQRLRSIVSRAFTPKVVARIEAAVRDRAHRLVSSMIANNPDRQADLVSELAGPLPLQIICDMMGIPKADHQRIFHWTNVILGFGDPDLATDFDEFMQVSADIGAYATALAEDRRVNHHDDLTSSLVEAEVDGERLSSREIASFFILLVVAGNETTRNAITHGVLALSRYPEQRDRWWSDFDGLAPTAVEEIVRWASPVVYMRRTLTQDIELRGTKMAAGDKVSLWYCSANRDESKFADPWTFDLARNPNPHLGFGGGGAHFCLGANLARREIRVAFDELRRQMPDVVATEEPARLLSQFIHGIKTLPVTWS

[2] = biological target: T2, CYP125 (Mycobacterium tuberculosis, UniProt P9WPP1); test: biochemical
T2 sequence (P9WPP1 1-433): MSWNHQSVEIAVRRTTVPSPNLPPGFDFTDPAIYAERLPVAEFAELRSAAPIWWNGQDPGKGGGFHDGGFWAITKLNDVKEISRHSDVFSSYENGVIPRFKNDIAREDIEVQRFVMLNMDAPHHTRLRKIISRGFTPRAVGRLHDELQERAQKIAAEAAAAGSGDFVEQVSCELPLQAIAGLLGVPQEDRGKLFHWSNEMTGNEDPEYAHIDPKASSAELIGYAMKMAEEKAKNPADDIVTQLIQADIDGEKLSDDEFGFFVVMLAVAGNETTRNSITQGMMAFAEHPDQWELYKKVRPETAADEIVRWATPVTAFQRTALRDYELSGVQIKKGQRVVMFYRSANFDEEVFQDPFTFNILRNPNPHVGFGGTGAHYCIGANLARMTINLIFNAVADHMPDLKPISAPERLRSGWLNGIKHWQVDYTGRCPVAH

[3] = biological target: T3, CYP142 (Rv3518c) (Mycobacterium tuberculosis, UniProt P9WPL5); test: biochemical
[4] = biological target: T3, CYP142 (Rv3518c); settings: read-out: Kdapp ± SE (μM) / CYP142; binder
[5] = biological target: T4, CYP142 (Rv3518c) (Mycobacterium tuberculosis, UniProt P9WPL5); test: biochemical; type: binding
T4 sequence (P9WPL5 1-398): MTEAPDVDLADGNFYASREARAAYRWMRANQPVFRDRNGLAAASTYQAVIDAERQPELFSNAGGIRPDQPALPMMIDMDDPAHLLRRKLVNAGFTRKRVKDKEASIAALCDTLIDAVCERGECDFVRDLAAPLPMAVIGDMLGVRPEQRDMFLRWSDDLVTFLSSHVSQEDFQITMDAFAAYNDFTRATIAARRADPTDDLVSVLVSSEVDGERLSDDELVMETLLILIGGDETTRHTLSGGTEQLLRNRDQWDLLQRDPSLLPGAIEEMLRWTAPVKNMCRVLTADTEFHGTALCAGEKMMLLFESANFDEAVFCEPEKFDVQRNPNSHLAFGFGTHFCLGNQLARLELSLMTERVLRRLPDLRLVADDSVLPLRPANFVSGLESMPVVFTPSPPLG

Row | SMILES | Kd [1] | Kd [2] | Kd [3] | Kd ([1]; read-out: Kdapp ± SE (μM) / CYP124, binder) | Kd ([2]; read-out: Kdapp ± SE (μM) / CYP125, binder) | Kd [4] | Kd [5]
1 | CC(C)CCC[C@@H](C)[C@H]1CC[C@H]2[C@@H]3C(=O)C=C4C[C@@H](O)CC[C@]4(C)[C@H]3CC[C@]12C [7ketoC] | 6.5 ± 0.8 µM | 12.4 ± 1.7 µM | 4.3 ± 0.8 µM | – | – | – | –
2 | CC(C)CCC[C@@H](C)[C@H]1CC[C@H]2[C@@H]3[C@@H](O)CC4=CC(=O)CC[C@]4(C)[C@H]3CC[C@]12C [7βOHC-one] | – | – | – | 13.2 ± 1.7 µM | 26 ± 3 µM | 27 ± 8 µM | –
3 | CC(C)CCC[C@@H](C)[C@H]1CC[C@H]2[C@@H]3[C@@H](O)C=C4C[C@@H](O)CC[C@]4(C)[C@H]3CC[C@]12C [7βOHC] | 11.1 ± 1.3 µM | 13 ± 2 µM | 6 ± 1.4 µM | – | – | – | –
4 | CCOC(=O)CCCCCCn1ccnc1 [CHImi] | 1.45 ± 0.08 µM | 31 ± 4 µM | – | – | – | – | 3.73 ± 0.19 µM
5 | CC(C)CCC[C@@H](C)[C@H]1CC[C@H]2[C@@H]3CCC4=CC(=O)CC[C@]4(C)[C@H]3CC[C@]12C [Cholestenone] | 3.4 ± 0.6 µM | 10.8 ± 1.8 µM | – | – | – | – | –
6 | O=C(O)CCCCCCCn1ccnc1 [ChpImi] | 3.1 ± 0.5 µM | 1.61 ± 0.03 µM | – | – | – | – | 31 ± 3 µM
7 | Cc1cc(CCC(C)C)ccc1NC=NO [cpd5', N′-hydroxy-N-(4-isopentyl-2-methylphenyl)formimidamide] | 1.93 ± 0.16 µM | 16 ± 5 µM | – | – | – | – | 0.17 ± 0.06 µM
